Test system: MV-4-11 cells
Assay: Gene expression microarray analysis (Affymetrix PrimeView) and GSEA
Type: cell-based, human
Set-up: RFU PODN (11730768_x_at) / Fold change /veh PODN (11730768_x_at) / RFU LINC00158 (11744669_a_at) / Fold change /veh LINC00158 (11744669_a_at) / RFU DUSP10 (11751237_a_at) / Fold change /veh DUSP10 (11751237_a_at) / RFU ID3 (11757404_x_at) / Fold change /veh ID3 (11757404_x_at) / RFU PLEKHG5 (11737974_s_at) / Fold change /veh PLEKHG5 (11737974_s_at) / RFU LRRC4B (11730491_at) / Fold change /veh LRRC4B (11730491_at) / RFU GIMAP4 (11747438_a_at) / Fold change /veh GIMAP4 (11747438_a_at) / RFU KRT8 (11758183_x_at) / Fold change /veh KRT8 (11758183_x_at) / RFU CNN1 (11734310_a_at) / Fold change /veh CNN1 (11734310_a_at) / RFU VPS37D (11726825_at) / Fold change /veh VPS37D (11726825_at) / RFU C10orf10 (11716522_x_at) / Fold change /veh C10orf10 (11716522_x_at) / RFU KIR2DL2 /// KIR2DL4 /// KIR2DL5A /// KIR2DL5B /// KIR2DS1 /// KIR2DS2 /// KIR2DS3 /// KIR2DS4 /// KIR3DL3 /// KIR3DL3 /// KIR3DS1 (11738374_at) / Fold change /veh KIR2DL2 /// KIR2DL4 /// KIR2DL5A /// KIR2DL5B /// KIR2DS1 /// KIR2DS2 /// KIR2DS3 /// KIR2DS4 /// KIR3DL3 /// KIR3DL3 /// KIR3DS1 (11738374_at) / RFU C1QL1 (11718748_at) / Fold change /veh C1QL1 (11718748_at) / RFU TMPRSS4 (11747572_a_at) / Fold change /veh TMPRSS4 (11747572_a_at) / RFU HAMP (11756126_x_at) / Fold change /veh HAMP (11756126_x_at) / RFU RNFT2 (11725882_a_at) / Fold change /veh RNFT2 (11725882_a_at) / RFU NR4A2 (11747474_a_at) / Fold change /veh NR4A2 (11747474_a_at) / RFU ABCC12 (11746883_a_at) / Fold change /veh ABCC12 (11746883_a_at) / RFU TMEM136 (11760407_x_at) / Fold change /veh TMEM136 (11760407_x_at) / RFU CLDN22 /// WWC2 (11732394_at) / Fold change /veh CLDN22 /// WWC2 (11732394_at) / RFU HLA-DPB1 (11760878_x_at) / Fold change /veh HLA-DPB1 (11760878_x_at) / RFU SPINT1 (11716480_a_at) / Fold change /veh SPINT1 (11716480_a_at) / RFU GAP43 (11754022_s_at) / Fold change /veh GAP43 (11754022_s_at) / RFU A4GNT (11735810_at) / Fold change /veh A4GNT (11735810_at) / RFU PRB3 (11715151_x_at) / Fold change /veh PRB3 (11715151_x_at) / RFU TUBB4B (11761932_at) / Fold change /veh TUBB4B (11761932_at) / RFU CAPN14 (11732068_a_at) / Fold change /veh CAPN14 (11732068_a_at) / RFU TMCC2 (11721928_a_at) / Fold change /veh TMCC2 (11721928_a_at) / RFU IRGQ (11745062_a_at) / Fold change /veh IRGQ (11745062_a_at) / RFU FAM174B (11720279_a_at) / Fold change /veh FAM174B (11720279_a_at) / RFU TMPRSS4 (11748680_a_at) / Fold change /veh TMPRSS4 (11748680_a_at) / RFU FAM212B (11763350_a_at) / Fold change /veh FAM212B (11763350_a_at) / RFU PLEKHG5 (11743358_a_at) / Fold change /veh PLEKHG5 (11743358_a_at) / RFU ZSCAN30 (11745921_a_at) / Fold change /veh ZSCAN30 (11745921_a_at) / RFU CMKLR1 (11741424_a_at) / Fold change /veh CMKLR1 (11741424_a_at) / RFU LOC101060620 /// MAPK8IP1 (11723275_at) / Fold change /veh LOC101060620 /// MAPK8IP1 (11723275_at) / RFU SPTSSB (11747773_x_at) / Fold change /veh SPTSSB (11747773_x_at) / RFU PRSS12 (11739890_at) / Fold change /veh PRSS12 (11739890_at) / RFU BIN1 (11741810_x_at) / Fold change /veh BIN1 (11741810_x_at) / RFU WNT11 (11732464_a_at) / Fold change /veh WNT11 (11732464_a_at) / RFU C10orf10 (11716521_a_at) / Fold change /veh C10orf10 (11716521_a_at) / RFU C5orf56 (11738089_at) / Fold change /veh C5orf56 (11738089_at) / RFU CYB561 (11721691_x_at) / Fold change /veh CYB561 (11721691_x_at) / RFU ANKRD19P (11752326_a_at) / Fold change /veh ANKRD19P (11752326_a_at) / RFU OR2T12 /// OR2T33 /// OR2T8 (11738714_s_at) / Fold change /veh OR2T12 /// OR2T33 /// OR2T8 (11738714_s_at) / RFU VCAN (11748164_a_at) / Fold change /veh VCAN (11748164_a_at) / RFU JSRP1 (11732532_at) / Fold change /veh JSRP1 (11732532_at) / RFU KRTAP10-11 (11738290_x_at) / Fold change /veh KRTAP10-11 (11738290_x_at) / RFU MYO3A (11730013_a_at) / Fold change /veh MYO3A (11730013_a_at) / RFU EBF3 (11725865_a_at) / Fold change /veh EBF3 (11725865_a_at) / RFU CAMK2N1 (11719241_x_at) / Fold change /veh CAMK2N1 (11719241_x_at) / RFU C5orf56 (11738088_a_at) / Fold change /veh C5orf56 (11738088_a_at) / RFU OLFML3 (11715873_a_at) / Fold change /veh OLFML3 (11715873_a_at) / RFU LOC100653217 /// NTM (11731650_a_at) / Fold change /veh LOC100653217 /// NTM (11731650_a_at) / RFU MAPK11 (11762145_a_at) / Fold change /veh MAPK11 (11762145_a_at) / RFU FIZ1 (11724087_x_at) / Fold change /veh FIZ1 (11724087_x_at) / RFU OASL (11726364_x_at) / Fold change /veh OASL (11726364_x_at) / RFU SOX15 (11748057_x_at) / Fold change /veh SOX15 (11748057_x_at) / RFU CD79A (11719716_a_at) / Fold change /veh CD79A (11719716_a_at) / RFU HIST1H1D (11736915_at) / Fold change /veh HIST1H1D (11736915_at) / RFU CASKIN2 (11723855_a_at) / Fold change /veh CASKIN2 (11723855_a_at) / RFU LOC730098 (11760151_x_at) / Fold change /veh LOC730098 (11760151_x_at) / RFU OR4N2 (11742367_at) / Fold change /veh OR4N2 (11742367_at) / RFU PRRT2 (11749266_a_at) / Fold change /veh PRRT2 (11749266_a_at) / RFU SNX32 (11753110_a_at) / Fold change /veh SNX32 (11753110_a_at) / RFU CDHR5 (11726645_a_at) / Fold change /veh CDHR5 (11726645_a_at) / RFU RCAN1 (11760418_a_at) / Fold change /veh RCAN1 (11760418_a_at) / RFU FAM167A (11723789_a_at) / Fold change /veh FAM167A (11723789_a_at) / RFU FAM26E (11764081_at) / Fold change /veh FAM26E (11764081_at) / RFU ISYNA1 (11749810_s_at) / Fold change /veh ISYNA1 (11749810_s_at) / RFU ACY1 (11761880_at) / Fold change /veh ACY1 (11761880_at) / RFU 11764098_at / Fold change /veh 11764098_at / RFU SAMD14 (11745864_x_at) / Fold change /veh SAMD14 (11745864_x_at) / RFU NPB (11741838_a_at) / Fold change /veh NPB (11741838_a_at) / RFU TMPRSS6 (11731388_a_at) / Fold change /veh TMPRSS6 (11731388_a_at) / RFU KRTAP10-2 (11738614_at) / Fold change /veh KRTAP10-2 (11738614_at) / RFU ARHGAP8 /// PRR5-ARHGAP8 (11727945_x_at) / Fold change /veh ARHGAP8 /// PRR5-ARHGAP8 (11727945_x_at) / RFU KRTAP5-7 /// NADSYN1 (11734609_at) / Fold change /veh KRTAP5-7 /// NADSYN1 (11734609_at) / RFU RASL12 (11751679_a_at) / Fold change /veh RASL12 (11751679_a_at) / RFU CDKN2B (11736163_a_at) / Fold change /veh CDKN2B (11736163_a_at) / RFU PRF1 (11729649_at) / Fold change /veh PRF1 (11729649_at) / RFU, ZNF638 /// ZNF638-IT1 / Fold change vs veh, ZNF638 /// ZNF638-IT1 / RFU, PANK3 / Fold change vs veh, PANK3 / RFU, SH3YL1 / Fold change vs veh, SH3YL1 / RFU, ZEB2 / Fold change vs veh, ZEB2 / RFU, NRIP1 / Fold change vs veh, NRIP1 / RFU, PTTG1IP / Fold change vs veh, PTTG1IP / RFU, CAPN2 / Fold change vs veh, CAPN2 / RFU, MED14 / Fold change vs veh, MED14 / RFU, SNORA58 / Fold change vs veh, SNORA58 / RFU, C1orf63 / Fold change vs veh, C1orf63 / RFU, LRRFIP1 / Fold change vs veh, LRRFIP1 / RFU, NDUFAF7 / Fold change vs veh, NDUFAF7 / RFU, SLC12A2 / Fold change vs veh, SLC12A2 / RFU, IBTK / Fold change vs veh, IBTK / RFU, ESF1 / Fold change vs veh, ESF1 / Fold change vs veh, TMEM50B / RFU, TAOK1 / Fold change vs veh, TAOK1 / RFU, ACBD3 / Fold change vs veh, ACBD3 / RFU, TMA16 / Fold change vs veh, TMA16 / RFU, RWDD3 / Fold change vs veh, RWDD3 / RFU, BCAT1 / Fold change vs veh, BCAT1 / RFU, EDEM3 / Fold change vs veh, EDEM3 / RFU, TMEM33 / Fold change vs veh, TMEM33 / RFU, WDR75 / Fold change vs veh, WDR75 / RFU, AHCTF1 / Fold change vs veh, AHCTF1 / RFU, TFRC / Fold change vs veh, TFRC / RFU, ZDHHC17 / Fold change vs veh, ZDHHC17 / RFU, NOM1 / Fold change vs veh, NOM1 / RFU, ARL8B / Fold change vs veh, ARL8B / RFU, ZBTB11 / Fold change vs veh, ZBTB11 / RFU, TAMM41 / Fold change vs veh, TAMM41 / RFU, KIAA1704 /// LOC100996395 / Fold change vs veh, KIAA1704 /// LOC100996395 / RFU, ING1 / Fold change vs veh, ING1 / RFU, TRMT61B / Fold change vs veh, TRMT61B / RFU, FUBP3 / Fold change vs veh, FUBP3 / RFU, TP53 / Fold change vs veh, TP53 / RFU, TNKS2 / Fold change vs veh, TNKS2 / RFU, ZFP14 / Fold change vs veh, ZFP14 / RFU, ACTR2 / Fold change vs veh, ACTR2 / RFU, PPP3R1 / Fold change vs veh, PPP3R1 / RFU, PIK3R1 / Fold change vs veh, PIK3R1 / RFU, HNRNPA1 / Fold change vs veh, HNRNPA1 / RFU, RNF170 / Fold change vs veh, RNF170 / RFU, ZNF28 / Fold change vs veh, ZNF28 / RFU, RNGTT / Fold change vs veh, RNGTT / RFU, OGT / Fold change vs veh, OGT / RFU, BRD1 / Fold change vs veh, BRD1 / RFU, MARS / Fold change vs veh, MARS / RFU, ZNF655 / Fold change vs veh, ZNF655 / RFU, FAHD1 / Fold change vs veh, FAHD1 / RFU, BDP1 / Fold change vs veh, BDP1 / RFU, LRRCC1 / Fold change vs veh, LRRCC1 / RFU, ARID1A / Fold change vs veh, ARID1A / RFU, ZNF146 / Fold change vs veh, ZNF146 / RFU, ZNF330 / Fold change vs veh, ZNF330 / RFU, GPN3 / Fold change vs veh, GPN3 / RFU, C9orf123 / Fold change vs veh, C9orf123 / RFU, N4BP2L2 / Fold change vs veh, N4BP2L2 / RFU, ARFIP1 / Fold change vs veh, ARFIP1 / RFU, FAM179B / Fold change vs veh, FAM179B / RFU, BCL10 / Fold change vs veh, BCL10 / RFU, UHRF1BP1L / Fold change vs veh, UHRF1BP1L / RFU, BET1 / Fold change vs veh, BET1 / RFU, CNOT2 / Fold change vs veh, CNOT2 / RFU, ZNF268 / Fold change vs veh, ZNF268 / Fold change vs veh, ZNF507 / RFU, DGCR2 / Fold change vs veh, DGCR2 / RFU, WDSUB1 / Fold change vs veh, WDSUB1 / Fold change vs veh, HSP90B1 /// MIR3652 / RFU, ADSS / Fold change vs veh, ADSS / RFU, GK / Fold change vs veh, GK / RFU, ZNF148 / Fold change vs veh, ZNF148 / RFU, TAF9 / Fold change vs veh, TAF9 / RFU, SLC1A5 / Fold change vs veh, SLC1A5 / RFU, SLMO2 / Fold change vs veh, SLMO2 / RFU, ABCC4 / Fold change vs veh, ABCC4 / RFU, LOC101060439 /// RAP1B / Fold change vs veh, LOC101060439 /// RAP1B / RFU, RFX7 / Fold change vs veh, RFX7 / RFU, GTPBP10 / Fold change vs veh, GTPBP10 / RFU, CNEP1R1 / Fold change vs veh, CNEP1R1 / RFU, BIVM-ERCC5 /// ERCC5 / Fold change vs veh, BIVM-ERCC5 /// ERCC5 / RFU, ILF3 / Fold change vs veh, ILF3 / RFU 11762660_at / Fold change /veh 11762660_at / RFU VCAN (11757783_s_at) / Fold change /veh VCAN (11757783_s_at) / RFU DDX43 (11728927_at) / Fold change /veh DDX43 (11728927_at) / RFU KRT8 (11758188_x_at) / Fold change /veh KRT8 (11758188_x_at) / RFU NKD1 (11759106_at) / Fold change /veh NKD1 (11759106_at) / RFU SRD5A1 (11742802_a_at) / Fold change /veh SRD5A1 (11742802_a_at) / RFU TPSAB1 /// TPSB2 (11721975_s_at) / Fold change /veh TPSAB1 /// TPSB2 (11721975_s_at) / RFU GSTM3 (11746129_a_at) / Fold change /veh GSTM3 (11746129_a_at) / RFU IL23R (11737362_x_at) / Fold change /veh IL23R (11737362_x_at) / RFU TMEM51 (11727254_a_at) / Fold change /veh TMEM51 (11727254_a_at) / RFU PIWIL2 (11732686_x_at) / Fold change /veh PIWIL2 (11732686_x_at) / RFU ORM1 (11744905_x_at) / Fold change /veh ORM1 (11744905_x_at) / RFU CCDC152 (11743942_at) / Fold change /veh CCDC152 (11743942_at) / RFU ECM1 (11717891_a_at) / Fold change /veh ECM1 (11717891_a_at) / RFU IL23R (11748794_a_at) / Fold change /veh IL23R (11748794_a_at) / RFU TNFAIP8L3 (11732012_x_at) / Fold change /veh TNFAIP8L3 (11732012_x_at) / RFU MBOAT4 (11741988_at) / Fold change /veh MBOAT4 (11741988_at) / RFU 11764193_at / Fold change /veh 11764193_at / RFU TMEM53 (11763286_at) / Fold change /veh TMEM53 (11763286_at) / RFU MAGEB2 (11727129_at) / Fold change /veh MAGEB2 (11727129_at) / RFU TMEM200A (11744735_a_at) / Fold change /veh TMEM200A (11744735_a_at) / RFU CCDC152 (11751479_a_at) / Fold change /veh CCDC152 (11751479_a_at) / RFU FAM211A (11726209_a_at) / Fold change /veh FAM211A (11726209_a_at) / RFU RGS16 (11746705_a_at) / Fold change /veh RGS16 (11746705_a_at) / RFU VCAN (11755009_s_at) / Fold change /veh VCAN (11755009_s_at) / RFU RHOB (11743442_s_at) / Fold change /veh RHOB (11743442_s_at) / RFU RGS16 (11720943_a_at) / Fold change /veh RGS16 (11720943_a_at) / RFU RGS16 (11720944_at) / Fold change /veh RGS16 (11720944_at) / RFU, VPS4B / Fold change vs veh, VPS4B / RFU, CREB1 / Fold change vs veh, CREB1 / RFU, DNAJC13 / Fold change vs veh, DNAJC13 / RFU, GNAQ / Fold change vs veh, GNAQ / RFU, CDK5R1 / Fold change vs veh, CDK5R1 / RFU, ZRANB3 / Fold change vs veh, ZRANB3 / RFU, CUL4A / Fold change vs veh, CUL4A / RFU, CCNY / Fold change vs veh, CCNY / RFU, UFL1 / Fold change vs veh, UFL1 / RFU, COG3 / Fold change vs veh, COG3 / RFU, DIAPH2 / Fold change vs veh, DIAPH2 / RFU, SKA2 / Fold change vs veh, SKA2 / RFU, AFF3 / Fold change vs veh, AFF3 / RFU, LMF1 / Fold change vs veh, LMF1 / RFU, IPO11 / Fold change vs veh, IPO11 / RFU, DFFB / Fold change vs veh, DFFB / RFU, FOXP1 / Fold change vs veh, FOXP1 / RFU, CARD8 / Fold change vs veh, CARD8 / RFU, STRN3 / Fold change vs veh, STRN3 / RFU, ADK / Fold change vs veh, ADK / RFU, RASSF2 / Fold change vs veh, RASSF2 / RFU, WIPF1 / Fold change vs veh, WIPF1 / RFU, LARP1B / Fold change vs veh, LARP1B / RFU, RASA1 / Fold change vs veh, RASA1 / RFU, RB1 / Fold change vs veh, RB1 / RFU, PPFIA1 / Fold change vs veh, PPFIA1 / RFU, MAT2A / Fold change vs veh, MAT2A / RFU, CCT5 / Fold change vs veh, CCT5 / RFU, WDR92 / Fold change vs veh, WDR92 / RFU, CUX1 / Fold change vs veh, CUX1 / RFU, TTC7A / Fold change vs veh, TTC7A / RFU, TMEM135 / Fold change vs veh, TMEM135 / RFU, DEPTOR / Fold change vs veh, DEPTOR / RFU, CPM / Fold change vs veh, CPM / RFU, DNAJB6 / Fold change vs veh, DNAJB6 / RFU, CACNA2D3 / Fold change vs veh, CACNA2D3 / RFU, DTX4 / Fold change vs veh, DTX4 / RFU, TFCP2 / Fold change vs veh, TFCP2 / RFU, GMCL1 /// GMCL1P1 / Fold change vs veh, GMCL1 /// GMCL1P1 / RFU, AEBP2 / Fold change vs veh, AEBP2 / RFU, SNHG1 /// SNORD22 /// SNORD25 /// SNORD26 /// SNORD27 /// SNORD28 /// SNORD29 /// SNORD31 / Fold change vs veh, SNHG1 /// SNORD22 /// SNORD25 /// SNORD26 /// SNORD27 /// SNORD28 /// SNORD29 /// SNORD31 / Fold change (Aza/veh), C12orf56 (ProbeSet 11735607_a_at) / Fold change (ACY-1035/veh), C12orf56 (ProbeSet 11735607_a_at) / Fold change (Aza/veh), FGFR1OP (ProbeSet 11751329_s_at) / Fold change (ACY-1035/veh), FGFR1OP (ProbeSet 11751329_s_at) / Fold change (Aza/veh), VPS36 (ProbeSet 11739960_a_at) / Fold change (ACY-1035/veh), VPS36 (ProbeSet 11739960_a_at) / RFU SYPL1 (11715823_x_at) / Fold change /veh SYPL1 (11715823_x_at) / RFU IGFBP7 (11715501_s_at) / Fold change /veh IGFBP7 (11715501_s_at) / RFU REEP3 (11722064_at) / Fold change /veh REEP3 (11722064_at) / RFU IGLL1 (11728026_x_at) / Fold change /veh IGLL1 (11728026_x_at): dose or concentration left out as unconfirmed
Conditions: ProbeSet 11725217_a_at; LIST B

With Nc1ncn([C@@H]2O[C@H](CO)[C@@H](O)[C@H]2O)c(=O)n1 [azacitidine] the “RFU, WDSUB1” value was 50.65 RFU.
